In patent US20080234288A1, “Hcv Inhibiting Sulfonamides” (priority 2003, published 2008):

system: HCV replicon (NS3-NS5B regions of HCV type 1b) in Huh-7 luc/neo cells; experiment: HCV replicon assay, stable replicon cell reporter assay (Huh-Luc, luciferase); format: cell-based; conditions: Hepatitis C virus, Huh-7, 72 h, incubation of three days, luciferase activity
Source text: The compounds of the present invention were examined for activity in the inhibition of HCV RNA replication in a cellular assay. […] The cellular assay was based on a bicistronic expression construct, as described by Lohmann et al. (1999) Science vol. 285 pp. 110-113 with modifications described by Krieger et al. (2001) Journal of Virology 75: 4614-4624, in a multi-target screening strategy. In essence, the method is as follows.
The assay utilized the stably transfected cell line Huh-7 luc/neo (hereafter referred to as Huh-Luc; kindly provided by Dr Ralf Bartenschlager, Reblikon GmBh, Germany). This cell line harbors an RNA encoding a bicistronic expression construct comprising the wild type NS3-NS5B regions of HCV type 1b translated from an Internal Ribosome Entry Site (IRES) from encephalomyocarditis virus (EMCV), preceded by a reporter portion (FfL-luciferase), and a selectable marker portion (neo^R, neomycine phosphotransferase). The construct was bordered by 5′ and 3′ NTRs (non-translated regions) from HCV type 1b. Continued culture of the replicon cells in the presence of G418 (neo^R) is dependent on the replication of the HCV RNA. The stably transfected replicon cells that express HCV RNA, which replicates autonomously and to high levels, encoding inter alia luciferase, were used for screening the antiviral compounds.
The replicon cells were plated in 384 well plates in the presence of the test and control compounds which were added in various concentrations. Following an incubation of three days, HCV replication was measured by assaying luciferase activity (using standard luciferase assay substrates and reagents and a Perkin Elmer ViewLux™ ultraHTS microplate imager). Replicon cells in the control cultures have high luciferase expression in the absence of any inhibitor. The inhibitory activity of the compound on luciferase activity was monitored on the Huh-Luc cells, enabling a dose-response curve for each test compound. EC50 values were then calculated, which value represents the amount of the compound required to decrease by 50% the level of detected luciferase activity, or more specifically, the ability of the genetically linked HCV replicon RNA to replicate (Table 1).

| SMILES | EC50 |
| --- | --- |
| CC(=O)Nc1nc2ccc(S(=O)(=O)N(CC(C)C)CC(O)C(Cc3ccccc3)NC(=O)OCc3cncs3)cc2o1 (stereo not shown) [Compound 1, {3-[(2-Acetylamino-benzooxazole-6-sulfonyl)-isobutyl-amino]-1-benzyl-2-hydroxy-propyl}-carbamic acid thiazol-5-ylmethyl ester] | 2 to 10 µM |
| CCOC(=O)Nc1nc2ccc(S(=O)(=O)N(CC(C)C)CC(O)C(Cc3ccccc3)NC(=O)OCc3cncs3)cc2o1 (stereo not shown) [Compound 2, (6-{[2-Hydroxy-4-phenyl-3-(thiazol-5-ylmethoxycarbonyl-amino)-butyl]-isobutyl-sulfamoyl}-benzooxazol-2-yl)-carbamic acid ethyl ester] | 10 to 32 µM |
| CC(C)CN(CC(O)C(Cc1ccccc1)NC(=O)OCc1cncs1)S(=O)(=O)c1ccc2nc(NC(=O)c3ccc(O)nc3)oc2c1 (stereo not shown) [Compound 3, [1-Benzyl-2-hydroxy-3-({2-[(6-hydroxy-pyridine-3-carbonyl)-amino]-benzooxazole-6-sulfonyl}-isobutyl-amino)-propyl]-carbamic acid thiazol-5-ylmethyl ester] | < 2 µM |
| CC(C)CN(CC(O)C(Cc1ccccc1)NC(=O)OCc1cncs1)S(=O)(=O)c1ccc2nc(NC(=O)c3cccnc3)oc2c1 (stereo not shown) [Compound 4, [1-Benzyl-2-hydroxy-3-(isobutyl-{2-[(pyridine-3-carbonyl)-amino]-benzooxazole-6-sulfonyl}-amino)-propyl]-carbamic acid thiazol-5-ylmethyl ester] | 2 to 10 µM |
| CC(C)CN(CC(O)C(Cc1ccccc1)NC(=O)OCc1cncs1)S(=O)(=O)c1ccc2nc(N3CCCC3)oc2c1 (stereo not shown) [Compound 5, {1-Benzyl-2-hydroxy-3-[isobutyl-(2-pyrrolidin-1-yl-benzo-oxazole-6-sulfonyl)-amino]-propyl}-carbamic acid thiazol-5-ylmethyl ester] | 2 to 10 µM |
| CC(C)CN(CC(O)C(Cc1ccccc1)NC(=O)OCc1cncs1)S(=O)(=O)c1ccc2nc(N(C)CCN3CCCC3)oc2c1 (stereo not shown) [Compound 6, {1-Benzyl-2-hydroxy-3-(isobutyl-{2-[methyl-(2-pyrrolidin-1-yl-ethyl)-amino]-benzooxazole-6-sulfonyl}-amino)-propyl]-carbamic acid thiazol-5-ylmethyl ester] | 10 to 32 µM |
| CC(C)CN(CC(O)C(Cc1ccccc1)NC(=O)OCc1cncs1)S(=O)(=O)c1ccc2nc(NC(=O)CN3CCN(C)CC3)oc2c1 (stereo not shown) [Compound 7, [1-Benzyl-2-hydroxy-3-(isobutyl-{2-[2-(4-methyl-piperazin-1-yl)-acetylamino]-benzooxazole-6-sulfonyl}-amino)-propyl]-carbamic acid thiazol-5-ylmethyl ester] | 2 to 10 µM |
| CC(C)CN(CC(O)C(Cc1ccccc1)NC(=O)OCc1cncs1)S(=O)(=O)c1ccc2nc(N(C)C(=O)C3CCC(=O)N3)oc2c1 (stereo not shown) [Compound 8, [1-Benzyl-2-hydroxy-3-(isobutyl-{2-[methyl-(5-oxo-pyrrolidine-2-carbonyl)-amino]-benzooxazole-6-sulfonyl}-amino)-propyl]-carbamic acid thiazol-5-ylmethyl ester] | 10 to 32 µM |
| CC(C)CN(CC(O)C(Cc1ccccc1)NC(=O)OCc1cncs1)S(=O)(=O)c1ccc2nc(N(C)C(=O)c3ccncc3)oc2c1 (stereo not shown) [Compound 9, [1-Benzyl-2-hydroxy-3-(isobutyl-{2-[methyl-(pyridine-4-carbonyl)-amino]-benzooxazole-6-sulfonyl}-amino)-propyl]-carbamic acid thiazol-5-ylmethyl ester] | 10 to 32 µM |
| CC(C)CN(CC(O)C(Cc1ccccc1)NC(=O)OCc1cncs1)S(=O)(=O)c1ccc2nc(N(C)C(=O)c3ccoc3)oc2c1 (stereo not shown) [Compound 10, [1-Benzyl-3-({2-[(furan-3-carbonyl)-methyl-amino]-benzo-oxazole-6-sulfonyl}-isobutyl-amino)-2-hydroxy-propyl]-carbamic acid thiazol-5-ylmethyl ester] | 2 to 10 µM |
| CC(C)CN(CC(O)C(Cc1ccccc1)NC(=O)OCc1cncs1)S(=O)(=O)c1ccc2nc(NC(=O)C3CCCN3C)oc2c1 (stereo not shown) [Compound 11, [1-Benzyl-2-hydroxy-3-(isobutyl-{2-[(1-methyl-pyrrolidine-2-carbonyl)-amino]-benzooxazole-6-sulfonyl}-amino)-propyl]-carbamic acid thiazol-5-ylmethyl ester] | 2 to 10 µM |
| CC(C)CN(CC(O)C(Cc1ccccc1)NC(=O)OCc1cncs1)S(=O)(=O)c1ccc2ncn(Cc3ccccc3)c2c1 (stereo not shown) [Compound 12, [1-Benzyl-3-[(3-benzyl-3H-benzoimidazole-5-sulfonyl)-isobutyl-amino]-2-hydroxy-propyl}-carbamic acid thiazol-5-ylmethyl ester] | 2 to 10 µM |
| CC(C)CN(CC(O)C(Cc1ccccc1)NC(=O)OCc1cncs1)S(=O)(=O)c1ccc2nc(N)sc2c1 (stereo not shown) [Compound 13, {3-[(2-Amino-benzothiazole-6-sulfonyl)-isobutyl-amino]-1-benzyl-2-hydroxy-propyl}-carbamic acid thiazol-5-ylmethyl ester] | 2 to 10 µM |
| CC(C)CN(CC(O)C(Cc1ccccc1)NC(=O)OCc1cncs1)S(=O)(=O)c1ccc2nc(NCCN(C)C)sc2c1 (stereo not shown) [Compound 14, (1-Benzyl-3-{[2-(2-dimethylamino-ethylamino)-benzo-thiazole-6-sulfonyl]-isobutyl-amino}-2-hydroxy-propyl)-carbamic acid thiazol-5-ylmethyl ester] | 2 to 10 µM |
| CC(C)CN(CC(O)C(Cc1ccccc1)NC(=O)OCc1cncs1)S(=O)(=O)c1ccc2nc(NCCN3CCCC3)sc2c1 (stereo not shown) [Compound 15, (1-Benzyl-2-hydroxy-3-{isobutyl-[2-(2-pyrrolidin-1-yl-ethyl-amino)-benzothiazole-6-sulfonyl]-amino}-propyl)-carbamic acid thiazol-5-ylmethyl ester] | 2 to 10 µM |
| CC(C)CN(CC(O)C(Cc1ccccc1)NC(=O)OCc1cncs1)S(=O)(=O)c1ccc2nc(NCCCN(C)C)sc2c1 (stereo not shown) [Compound 17, (1-Benzyl-3-{[2-(3-dimethylamino-propylamino)-benzo-thiazole-6-sulfonyl]-isobutyl-amino}-2-hydroxy-propyl)-carbamic acid thiazol-5-ylmethyl ester] | 10 to 32 µM |
| CC(C)CN(CC(O)C(Cc1ccccc1)NC(=O)OCc1cncs1)S(=O)(=O)c1ccc2nc(NCCN3CCNCC3)sc2c1 (stereo not shown) [Compound 18, (1-Benzyl-2-hydroxy-3-{isobutyl-[2-(2-piperazin-1-yl-ethyl-amino)-benzothiazole-6-sulfonyl]-amino}-propyl)-carbamic acid thiazol-5-ylmethyl ester] | 2 to 10 µM |
| CC(C)CN(CC(O)C(Cc1ccccc1)NC(=O)OCc1cncs1)S(=O)(=O)c1ccc2nc[nH]c2c1 (stereo not shown) [Compound 20, {3-[(3H-Benzoimidazole-5-sulfonyl)-isobutyl-amino]-1-benzyl-2-hydroxy-propyl}-carbamic acid thiazol-5-ylmethyl ester] | 10 to 32 µM |

same assay, conditions: incubation of three days, luciferase activity

| SMILES | EC50 |
| --- | --- |
| CC(C)CN(CC(O)C(Cc1ccccc1)NC(=O)OCc1cncs1)S(=O)(=O)c1ccc2nc(N)oc2c1 (stereo not shown) [Compound 19, {3-[(2-Amino-benzooxazole-6-sulfonyl)-isobutyl-amino]-1-benzyl-2-hydroxy-propyl}-carbamic acid thiazol-5-ylmethyl ester] | 2 to 10 µM |
